Laboratory results taken from US6492302B1, “Compositions for the protection of plants against the stress of oxidation” (priority 1998, dated 2002).

Experiment: antioxidant properties of lipo-amino acids

In the case of butyryl-cystine, the antioxidant properties was “does not possess these properties”.
